In ChEMBL document CHEMBL2074267, “Dexamethasone modulation of multidrug transporters in normal tissues” (FEBS Lett, 1999):

Assays:
[1] = molecular target: T1, ATP-binding cassette sub-family C member 2 (Rattus norvegicus, UniProt Q63120); experiment: (§1) TP_TRANSPORTER: Western in vivo, kidney of SD rat; format: functional, organism-based, Sprague-Dawley
[2] = molecular target: T1, ATP-binding cassette sub-family C member 2; experiment: TP_TRANSPORTER: Western in vivo, liver of SD rat; format: functional, organism-based, Sprague-Dawley
[3] = molecular target: Multidrug resistance protein 1a (Rattus norvegicus) (UniProt Q6PSM0); experiment: as §1; format: functional, organism-based; details: Sprague-Dawley
Sequence of Multidrug resistance protein 1a (Rattus norvegicus) (Q6PSM0 as listed by the source): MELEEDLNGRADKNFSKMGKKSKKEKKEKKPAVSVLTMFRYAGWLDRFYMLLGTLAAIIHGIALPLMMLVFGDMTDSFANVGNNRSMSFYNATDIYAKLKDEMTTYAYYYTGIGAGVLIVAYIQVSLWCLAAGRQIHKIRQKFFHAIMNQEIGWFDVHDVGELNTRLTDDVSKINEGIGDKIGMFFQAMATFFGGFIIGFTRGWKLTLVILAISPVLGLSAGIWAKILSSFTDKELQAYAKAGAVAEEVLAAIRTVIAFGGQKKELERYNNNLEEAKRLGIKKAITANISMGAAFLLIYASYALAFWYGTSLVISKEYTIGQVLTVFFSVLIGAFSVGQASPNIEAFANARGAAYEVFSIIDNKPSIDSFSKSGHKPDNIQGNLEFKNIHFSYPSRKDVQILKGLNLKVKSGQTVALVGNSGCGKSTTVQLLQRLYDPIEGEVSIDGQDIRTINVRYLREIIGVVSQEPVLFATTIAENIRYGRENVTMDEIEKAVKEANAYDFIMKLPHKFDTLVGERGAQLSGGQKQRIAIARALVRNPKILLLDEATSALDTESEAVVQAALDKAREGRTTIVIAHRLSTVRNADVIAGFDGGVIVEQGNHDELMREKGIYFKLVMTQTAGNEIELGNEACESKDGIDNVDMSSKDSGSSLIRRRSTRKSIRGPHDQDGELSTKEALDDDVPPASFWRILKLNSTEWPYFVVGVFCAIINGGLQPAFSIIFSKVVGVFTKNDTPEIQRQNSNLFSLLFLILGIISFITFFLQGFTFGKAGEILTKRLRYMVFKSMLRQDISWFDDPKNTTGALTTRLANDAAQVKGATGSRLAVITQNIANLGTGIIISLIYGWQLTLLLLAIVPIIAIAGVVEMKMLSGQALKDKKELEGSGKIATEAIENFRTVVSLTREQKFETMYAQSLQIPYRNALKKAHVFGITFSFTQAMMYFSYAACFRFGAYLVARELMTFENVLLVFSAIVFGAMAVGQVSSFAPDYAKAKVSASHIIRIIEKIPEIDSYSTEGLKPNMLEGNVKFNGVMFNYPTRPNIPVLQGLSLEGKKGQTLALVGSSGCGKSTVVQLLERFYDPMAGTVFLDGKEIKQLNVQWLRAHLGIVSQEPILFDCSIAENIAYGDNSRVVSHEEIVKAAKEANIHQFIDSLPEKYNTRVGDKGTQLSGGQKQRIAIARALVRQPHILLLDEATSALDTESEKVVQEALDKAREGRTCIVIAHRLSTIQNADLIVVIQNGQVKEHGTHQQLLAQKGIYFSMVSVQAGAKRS

T1 sequence (Q63120 whole entry): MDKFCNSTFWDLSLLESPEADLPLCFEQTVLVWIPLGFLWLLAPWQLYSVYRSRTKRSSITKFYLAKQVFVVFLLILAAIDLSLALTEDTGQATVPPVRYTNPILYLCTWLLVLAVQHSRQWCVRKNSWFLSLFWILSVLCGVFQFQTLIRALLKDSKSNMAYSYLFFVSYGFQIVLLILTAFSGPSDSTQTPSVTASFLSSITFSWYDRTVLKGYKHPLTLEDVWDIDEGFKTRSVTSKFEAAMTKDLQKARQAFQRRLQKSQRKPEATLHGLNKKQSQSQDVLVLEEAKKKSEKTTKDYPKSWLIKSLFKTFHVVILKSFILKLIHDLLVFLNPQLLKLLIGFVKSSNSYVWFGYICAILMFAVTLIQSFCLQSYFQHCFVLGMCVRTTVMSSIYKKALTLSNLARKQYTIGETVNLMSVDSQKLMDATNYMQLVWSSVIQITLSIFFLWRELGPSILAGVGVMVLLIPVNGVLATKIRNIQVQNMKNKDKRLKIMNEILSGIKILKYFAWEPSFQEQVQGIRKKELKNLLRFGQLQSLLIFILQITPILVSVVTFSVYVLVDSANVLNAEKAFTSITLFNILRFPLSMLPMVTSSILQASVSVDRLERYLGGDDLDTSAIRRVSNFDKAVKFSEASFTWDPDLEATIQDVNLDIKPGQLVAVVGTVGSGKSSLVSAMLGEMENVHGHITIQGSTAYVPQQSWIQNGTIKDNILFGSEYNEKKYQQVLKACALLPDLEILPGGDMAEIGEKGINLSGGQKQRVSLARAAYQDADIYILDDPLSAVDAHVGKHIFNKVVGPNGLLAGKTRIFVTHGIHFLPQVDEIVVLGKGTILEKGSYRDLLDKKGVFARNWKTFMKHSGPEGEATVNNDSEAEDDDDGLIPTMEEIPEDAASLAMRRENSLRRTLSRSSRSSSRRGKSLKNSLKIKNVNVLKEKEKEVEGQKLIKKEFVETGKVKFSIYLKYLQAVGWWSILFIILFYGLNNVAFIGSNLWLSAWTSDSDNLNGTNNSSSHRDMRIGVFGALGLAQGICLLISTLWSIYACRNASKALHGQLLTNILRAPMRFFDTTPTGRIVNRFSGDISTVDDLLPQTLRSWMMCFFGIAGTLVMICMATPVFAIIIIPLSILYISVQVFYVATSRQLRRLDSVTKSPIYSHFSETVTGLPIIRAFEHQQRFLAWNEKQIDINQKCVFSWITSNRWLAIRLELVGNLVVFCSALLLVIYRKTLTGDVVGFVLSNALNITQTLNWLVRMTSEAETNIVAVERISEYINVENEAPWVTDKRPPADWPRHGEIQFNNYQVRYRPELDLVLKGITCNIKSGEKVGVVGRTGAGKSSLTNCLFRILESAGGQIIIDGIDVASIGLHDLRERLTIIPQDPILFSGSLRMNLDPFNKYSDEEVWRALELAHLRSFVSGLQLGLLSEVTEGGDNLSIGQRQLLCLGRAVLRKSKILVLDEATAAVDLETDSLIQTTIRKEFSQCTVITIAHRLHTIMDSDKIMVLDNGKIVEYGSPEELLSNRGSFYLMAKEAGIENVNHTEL

Activity [1]: inducer [+]
Activity [2]: inducer [+]
Activity [3]: inducer [Decrease]
SMILES: C[C@@H]1C[C@H]2[C@@H]3CCC4=CC(=O)C=C[C@]4(C)[C@@]3(F)[C@@H](O)C[C@]2(C)[C@@]1(O)C(=O)CO [DEXAMETHASONE]
